Experiments:
[1] = photographic performance of coatings containing nucleator: relative speed, dot quality, contrast (Example 1); details: for Relative Speed: incorporated booster 64.6 mg/m^2, 1 minute at 35° C., pH 10.5; for DQ (contact screen exposed halftone dot quality): rated on a scale, 5 is excellent; for photographic speed (in words): comparison of tests of Table I
Description: Each coating used in obtaining the data provided in this example was prepared on a polyester support, using a monodispersed 0.24 μm AgBrI (2.5 mol % iodide) iridium-doped emulsion at 3.51 g/m^2 Ag, 2.54 g gel/m^2, and 1.08 g latex/m^2 where the latex is a copolymer of methyl acrylate, 2-acrylamido-2-methylpropane sulfonic acid, and 2-acetoacetoxyethylmethylacrylate. The silver halide emulsion was spectrally sensitized with 214 mg/Ag mol of anhydro-5,5'-dichloro-9-ethyl-3,3'-di-(3-sulfopropyl) oxacarbocyanine hydroxide, triethylene salt and the emulsion layer was overcoated with gelatin containing polymethylmethacrylate beads. The nucleating agent was added as a methanol solution to the emulsion melts at a level in millimoles (mM) per mole of silver as hereinafter indicated. An "incorporated booster" was added as a methanol solution in an amount of 64.6 milligrams per square meter of photographic element. The compound employed as the "incorporated booster" is represented by the formula: [drawing 8] where Pr represents n-propyl. Coatings were exposed for five seconds to a 3000° K. tungsten light source and processed for 1 minute at 35° C. in the developer solution.
To prepare the developer solution, a concentrate was prepared from the following ingredients:
The concentrate was diluted at a ratio of one part of concentrate to two parts of water to produce a working strength developing solution with a pH of 10.5.
*DQ = contact screen exposed halftone dot quality rated on a scale where
is poor and 5 is excellent.

[2] = chemical spread: dot diameter growth rate of coatings containing nucleator (Example 2); details: for Dot Diameter Growth Rate: 10 to 60 seconds development
From the text: Coatings similar to those described in Example 1 were examined for differences in the degree of image spreading, so-called chemical spread, that is inherent to high contrast, nucleation processes. The films were exposed 5 seconds with 3000K tungsten light through a 90%, 52 line per centimeter, round dot tint mask to produce hard 10% dots upon development for about 10 seconds in the developer described in Example 1. With extended development beyond 10 seconds (typical development times in practice are 30 to 60 seconds), the nucleation process entails fogging of unexposed silver halide at the dot edges and, in turn, causes the dot to grow in size. The growth of the dot was measured by monitoring the change in density of the developing tint with time from 10 to 60 seconds and converting the measured density to the equivalent dot diameter using the well known relation between integrated halftone density and dot size.

SMILES | Relative Speed ([1]; nucleator 1.0 mM/Ag mole) | DQ (contact screen exposed halftone dot quality) ([1]; nucleator 1.0 mM/Ag mole) | Relative Speed ([1]; nucleator 2.0 mM/Ag mole) | DQ (contact screen exposed halftone dot quality) ([1]; nucleator 2.0 mM/Ag mole) | Dot Diameter Growth Rate ([2]; nucleator 2.0 mM/Ag mole) | photographic speed (in words) [1] | screen-exposed halftone dot quality (in words) ([1]; Example 1) | Relative Speed ([1]; nucleator 0.5 mM/Ag mole) | DQ (contact screen exposed halftone dot quality) ([1]; nucleator 0.5 mM/Ag mole) | Relative Speed ([1]; nucleator 0.75 mM/Ag mole) | DQ (contact screen exposed halftone dot quality) ([1]; nucleator 0.75 mM/Ag mole) | dot diameter growth rate or chemical spread (in words) ([2]; Test 4 (one quarter the concentration) compared with Control Test A^1) | Dot Diameter Growth Rate ([2]; nucleator 0.50 mM/Ag mole) | Dot Diameter Growth Rate ([2]; nucleator 1.0 mM/Ag mole)
CC(C)c1ccc(C(C)C)c(S(=O)(=O)Nc2ccc(NNC=O)cc2)c1 [Control A] | 87 | 3.5 | 100 | 4 | 0.60 micrometers/sec | – | – | – | – | – | – | – | – | –
CCCCCCCCSCC(=O)Nc1c(C)ccc(S(=O)(=O)Nc2ccc(NNC=O)cc2)c1C [Control C] | 68 | 3.5 | 68 | 3.5 | – | significantly lowers the photographic speed relative to the non-thio control of Test A | – | – | – | – | – | – | – | –
CCCCCCCCOCCOCCOCCOCCSCC(=O)Nc1c(C)ccc(S(=O)(=O)Nc2ccc(NNC=O)cc2)c1C [Compound I-6] | – | – | – | – | – | the same speed was achieved in Test 1 even though the molar concentration of nucleator was one quarter of that used in Control Test B | significant improvement in the screen-exposed halftone dot quality | 100 | 4.5 | 107 | 4.5 | much less | 0.30 micrometers/sec | 0.41 micrometers/sec
